This is an account of results in PMC6155659, “Application of the Triazolization Reaction to Afford Dihydroartemisinin Derivatives with Anti-HIV Activity” (Molecules : A Journal of Synthetic Chemistry and Natural …, 2017).

The structures appear in SMILES notation. Read-outs that look alike come from different tables or passages of the source.

Series [1] has as its system wild-type HIV-1 (IIIB). Kind of series: Anti-HIV-1 (IIIB) activity in MT-4 cell cultures, MTT method. Conditions: for anti-HIV-1 wild-type activity (in words): MT-4 cells, HIV-1 IIIB. The series is classed as cell-based. How it is done:
(§1) The newly synthesized dihydroartemisinin triazole derivatives were evaluated for their inhibitory effects (IC50) on the replication of wild-type HIV-1 (IIIB) and HIV-2 (ROD) in MT-4 cell cultures, in parallel with their cytotoxicities (CC50) using the 3-(4,5-dimethylthiazol-2-yl)-2,5-diphenyl tetrazolium bromide (MTT) method. A series of nucleoside reverse transcriptase inhibitors (NRTIs)—i.e., azidothymidine (AZT), lamivudine (3TC) and didanosine (DDI)—and non-nucleoside reverse transcriptase inhibitors (NNRTIs)—i.e., nevirapine (NVP), efavirenz (EFV), and etravirine (ETR)—were included as reference compounds. The biological results are represented as IC50 and CC50 values in Table 3.
(In general: Formazan colour is commonly taken as a measure of viable cells.)

In series [2] the test system is HIV-2 (ROD). Kind of series: Anti-HIV-2 (ROD) activity in MT-4 cell cultures, MTT method. The series is classed as cell-based. How it is done:
as §1

In series [3] the test system is double reverse transcriptase mutant (K103N; Y181C) HIV-1 strain (RES056). Kind of series: Activity against double reverse transcriptase mutant HIV-1 strain RES056 in MT-4 cell cultures, MTT method. The series is classed as cell-based. As to conditions: for IC50: Human immunodeficiency virus 1, MT4, read-out: IC50 HIV-1 Strain RES056; for inhibitory activity against RES056 (in words): K103N, Y181C double RT mutant HIV-1, MT-4 cells. How it is done:
as §1
Most of the new triazole analogues of dihydroartemisinin are completely devoid of anti-HIV activity. […] The active molecules were also evaluated for their inhibitory activity against a double reverse transcriptase mutant (K103N; Y181C) HIV-1 strain (RES056). […] Therefore, the active β-tetralone derivatives most probably act via an NNRTI-type mode of action.

The nature of series [4]: Cytotoxicity in mock-infected MT-4 cell cultures, MTT method. As to conditions: human. The series is classed as cell-based. How it is done:
as §1

Series [5] deals with MT-4 cells. The description is as above. Conditions: cell culture. It counts as cell-based. How it is done:
as §1

[6] abbreviates: Human immunodeficiency virus 1, IIIB, MT4, 50% protection of MT-4 cell cultures against virus-induced cytotoxicity, MTT method, read-out: IC50 HIV-1 Strain IIIB.
The mark [7] stands for this setting: Human immunodeficiency virus 2, MT4, read-out: IC50 HIV-2 Strain ROD.
Where [8] appears, read: mock-infected MT-4 cells, concentration reducing viability of mock-infected MT-4 cell cultures by 50%, MTT method, read-out: CC50.
[9] abbreviates: Human immunodeficiency virus 2, MT4, 50% protection of MT-4 cell cultures against virus-induced cytotoxicity, MTT method, read-out: IC50 HIV-2 Strain ROD.
The mark [10] stands for this setting: concentration reducing viability of mock-infected MT-4 cell cultures by 50%, MTT method, read-out: CC50.

Consider `COc1cc2c(cc1OC)-c1nnn(CCO[C@@H]3O[C@@H]4O[C@@]5(C)CCC6[C@H](C)CC[C@@H]([C@H]3C)[C@]64OO5)c1CC2` (stereo partly drawn) [Compound 8c, 7,8-Dimethoxy-3-(2-(((3R,6R,8aS,9R,10R,12R,12aR)-3,6,9-trimethyldecahydro-12H-3,12-epoxy[1,2]dioxepino[4,3-i]isochromen-10-yl)oxy)ethyl)-4,5-dihydro-3H-naphtho[1,2-d][1,2,3]triazole], for which the IC50 (as a rule, the concentration that gives 50% inhibition) in series [1] (setting [6]) was 4.06 µM; in series [2] (setting [7]) it was > 21.2 µM; in series [3], > 21.2 µM. Further, the “anti-HIV-1 wild-type activity (in words)” value in series [1] is listed as “inhibitory to HIV-1 replication”. For the same molecule, the “inhibitory activity against RES056 (in words)” value (“inhibitory activity” for short) in series [3] is “completely lose their inhibitory activity”. Moreover, the CC50 – broadly, the concentration giving 50% cytotoxicity – in series [4] (setting [8]) was found to be 21.2 µM. The “cytotoxicity (in words)” value in series [5] is given as “limited cytotoxicity”.

Regarding `COc1cc(Cn2nnc3c2CCC(C(=O)O[C@@H]2O[C@@H]4O[C@@]5(C)CCC6[C@H](C)CC[C@@H]([C@H]2C)[C@]64OO5)C3)cc(OC)c1OC` (stereo partly drawn), the melting point – broadly, the temperature, or range, at which the solid turns liquid – lay in the range of 80 to 81 °C.

Molecule `C[C@H]1[C@H](OCCn2nnc3c2CCc2ccccc2-3)O[C@@H]2O[C@@]3(C)CCC4[C@H](C)CC[C@@H]1[C@]42OO3` (stereo partly drawn) [Compound 8b, 3-(2-(((3R,6R,8aS,9R,10R,12R,12aR)-3,6,9-Trimethyldecahydro-12H-3,12-epoxy[1,2]dioxepino[4,3-i]isochromen-10-yl)oxy)ethyl)-4,5-dihydro-3H-naphtho[1,2-d][1,2,3]triazole] showed a melting point of 104 to 105 °C. Further, the concentration for half-maximal inhibition (IC50) in series [1] (setting [6]) came to 2.78 µM. Besides, the “anti-HIV-1 wild-type activity (in words)” value in series [1] was “inhibitory to HIV-1 replication”. Further, the concentration for half-maximal inhibition (IC50) in series [2] (setting [7]) is > 31.5 µM. In series [3], the IC50 is > 31.5 µM and the “inhibitory activity” value was “completely lose their inhibitory activity”. The half-maximal cytotoxic concentration (CC50) in series [4] (setting [8]) is 31.5 µM. Besides, the “cytotoxicity (in words)” value in series [5] is “limited cytotoxicity”.

On to `Nc1ccn([C@@H]2CS[C@H](CO)O2)c(=O)n1` [Lamivudine, lamivudine, reference compound], for which the IC50 in series [1] (setting [6]) came to 2.53 µM; in series [2] (setting [9]), 9.9 µM. Besides, in series [4], the 50% cytotoxic concentration (CC50) was > 87.2 µM.

For `C[C@H]1[C@H](OCCn2nnc3c2-c2ccccc2CC3)O[C@@H]2O[C@@]3(C)CCC4[C@H](C)CC[C@@H]1[C@]42OO3` (stereo partly drawn) [Compound 8a, 1-(2-(((3R,6R,8aS,9R,10R,12R,12aR)-3,6,9-Trimethyldecahydro-12H-3,12-epoxy[1,2]dioxepino[4,3-i]isochromen-10-yl)oxy)ethyl)-4,5-dihydro-1H-naphtho[1,2-d][1,2,3]triazole], the IC50 in series [1] (setting [6]) and in series [2] (setting [9]) was > 10.3 µM each time. Moreover, in series [1], the “anti-HIV-1 wild-type activity (in words)” value is “did not show any activity”. In addition, the CC50 in series [4] (setting [8]) was > 10.3 µM.

For the molecule `Cc1cn([C@H]2C[C@H](N=[N+]=[N-])[C@@H](CO)O2)c(=O)[nH]c1=O` [Azidothymidine, azidothymidine, reference compound], the IC50 in series [1] (setting [6]) was found to be 0.0064 µM; in series [2] (setting [9]), 0.0082 µM; in series [3], 0.0071 µM. In addition, the CC50 in series [4] was > 7.5 µM.

In turn, `C[C@H]1[C@H](OCCn2nncc2-c2ccc(Br)c(Br)c2)O[C@@H]2O[C@@]3(C)CCC4[C@H](C)CC[C@@H]1[C@]42OO3` (stereo partly drawn) had a melting point of 105 to 106 °C.

Take `O=c1[nH]cnc2c1ncn2[C@H]1CC[C@@H](CO)O1` [Didanosine, didanosine, reference compound]: the values for the IC50 in series [1] (setting [6]) and in series [2] (setting [9]) were 76 µM and 82.1 µM, respectively. Moreover, in series [4], the CC50 is > 212 µM.

`C[C@H]1[C@H](OCCn2nnc3c2C[C@@H]2CC[C@@H]4[C@H](CC[C@]5(C)[C@@H](O)CC[C@@H]45)[C@@]2(C)C3)O[C@@H]2O[C@@]3(C)CCC4[C@H](C)CC[C@@H]1[C@]42OO3` (stereo partly drawn) showed a melting point of 96 to 97 °C.

On to `COc1ccc2c(c1)-c1nnn(CCO[C@@H]3O[C@@H]4O[C@@]5(C)CCC6[C@H](C)CC[C@@H]([C@H]3C)[C@]64OO5)c1CC2` (stereo partly drawn) [Compound 8e, 8-Methoxy-3-(2-(((3R,6R,8aS,9R,10R,12R,12aR)-3,6,9-trimethyldecahydro-12H-3,12-epoxy[1,2]dioxepino[4,3-i]isochromen-10-yl)oxy)ethyl)-4,5-dihydro-3H-naphtho[1,2-d][1,2,3]triazole], for which the results for the concentration for half-maximal inhibition (IC50) in series [1] (setting [6]), in series [2] (setting [7]) and in series [3] were 5.18 µM, > 14.9 µM and > 14.9 µM, respectively. The “anti-HIV-1 wild-type activity (in words)” value in series [1] is listed as “inhibitory to HIV-1 replication”. In series [3], the “inhibitory activity” value was “completely lose their inhibitory activity”. The half-maximal cytotoxic concentration (CC50) in series [4] (setting [8]) amounted to 14.9 µM. The “cytotoxicity (in words)” value in series [5] was “limited cytotoxicity”.

On to `Cc1cc(C#N)cc(C)c1Oc1nc(Nc2ccc(C#N)cc2)nc(N)c1Br` [Etravirine, etravirine], for which the IC50 in series [1] (Human immunodeficiency virus 1, MT4, read-out: IC50 HIV-1 Strain IIIB) is 0.0034 µM; in series [2] (setting [7]) it was > 2.29 µM; in series [3], 0.045 µM. For the same molecule, the “inhibitory activity” value in series [3] is “only slightly affected”. In series [4] (setting [8]), the CC50 worked out at 2.29 µM.

Consider `Cc1ccnc2c1NC(=O)c1cccnc1N2C1CC1` [Nevirapine, nevirapine], for which the results for the IC50 in series [1] (setting [6]), in series [2] (setting [9]) and in series [3] were 0.075 µM, > 15 µM and > 15 µM, respectively. Also, in series [3], the “inhibitory activity” value was “completely lose their inhibitory activity”. In addition, the CC50 in series [4] (setting [10]) was > 15 µM.

Turning to `O=C1Nc2ccc(Cl)cc2[C@@](C#CC2CC2)(C(F)(F)F)O1` [Efavirenz, efavirenz], the values for the 50% inhibitory concentration (IC50) in series [1] (setting [6]), in series [2] (setting [9]) and in series [3] were 0.0024 µM, > 6.3 µM and 0.18 µM, respectively. The “inhibitory activity” value in series [3] is “only slightly affected”. Moreover, the 50% cytotoxic concentration (CC50) in series [4] (setting [10]) was > 6.3 µM.
